Data reported in ChEMBL document CHEMBL1764965, “Contribution of cinnamic acid analogues in rosmarinic acid to inhibition of snake venom induced hemorrhage” (Bioorg Med Chem, 2011).

Species: Mus musculus
Assay: cells
Type: functional, organism-based, ddY
Conditions: not given; call rule not given here

Structure (SMILES) | IC50
O=C(CCc1ccc(O)c(O)c1)O[C@H](Cc1ccc(O)c(O)c1)C(=O)O | Not Active
COc1cc(CC(O)C(=O)O)ccc1O (stereo unspecified) | Not Active
O=C/C=C/c1ccccc1 [CINNAMALDEHYDE] | Not Active
O=C(O)/C=C\c1ccc(O)c(O)c1O | Not Active
COC(=O)/C=C/c1ccc(O)c(O)c1 [METHYLCAFFEATE] | Not Active
O=C(O)CCc1ccc(O)c(O)c1 [DIHYDROCAFFEIC ACID] | Not Active
O=C(O)/C=C\c1cc(O)c(O)cc1O | Not Active
COC(=O)/C=C/c1ccccc1 [E-METHYL CINNAMATE] | Not Active
COC(=O)[C@@H](Cc1ccc(O)c(O)c1)OC(=O)C=Cc1ccc(O)c(O)c1 (mixture of isomers) [ROSMARINIC ACID METHYL ESTER] | Not Active
OC/C=C/c1ccccc1 [CINNAMIC ALCOHOL] | Not Active
O=C(O)/C=C\c1cc(O)c(O)c(O)c1 | Not Active

Same assay, conditions: Mus musculus, ddY; read-out: IC50

Structure (SMILES) | IC50
C/C=C/C(=O)O [CROTONIC ACID] | 220 nM
O=C(O)/C=C/c1ccc(O)cc1 [COUMARIC ACID] | 190 nM
C/C=C/C=C/C(=O)O [SORBIC ACID] | 210 nM
COc1ccc(/C=C/C(=O)O)cc1OC [O,O'-DIMETHYLCAFFEIC ACID] | 240 nM
O=C(O)/C=C/C=C/c1ccccc1 [JUAREZIC ACID] | 220 nM
O=C(/C=C/c1ccc(O)c(O)c1)O[C@@H]1C[C@](O)(C(=O)O)C[C@@H](O)[C@H]1O [CHLOROGENIC ACID] | 200 nM
O=C(/C=C/c1ccc(O)c(O)c1)O[C@H](Cc1ccc(O)c(O)c1)C(=O)O [ROSMARINIC ACID] | 150 nM
O=C(O)/C=C/c1ccc(O)cc1O | 210 nM
O=C(O)/C=C/c1ccccc1O [O-COUMARIC ACID] | 190 nM
COc1cc(/C=C/C(=O)O)ccc1O [FERULATE] | 200 nM
O=C(O)/C=C/c1ccccc1 [CINNAMIC ACID] | 180 nM
O=C(O)/C=C/c1ccc(O)c(O)c1 [CAFFEIC ACID] | 190 nM
O=C(C=Cc1ccc(O)c(O)c1)O[C@H](Cc1ccc(O)c(O)c1)C(=O)O (mixture of isomers) [(E/Z)-ROSMARINIC ACID] | 600 nM
O=C(O)/C=C/c1cccc(O)c1 | 180 nM
O=C(O)/C=C/c1cc(O)c(O)c(O)c1 | 180 nM
